Experiments:
E. coli = conditions: cited from earlier work
[1] = tested on: E. coli in the urinary tract; test: doctor-run trials of mannose dosages in urinary tract infections; format: in vivo; conditions: 2 g three times a day for acute infections; maintenance 1 g one to two times per day
Excerpt: Because it is difficult for many people to remember a medication that must be taken this often, it is herein disclosed to change this model, as disclosed in the table in FIG. 2. For acute infections, the method is to give a 2-gram (1 teaspoon) dose of mannose three times a day with meals. The maintenance dosage is one-half teaspoon (1 gram) one to two times per day. Children's dosages are half of the adult dosage. For women who experience UTIs after sexual relations, one teaspoon is used an hour prior to intimate relations and an additional one teaspoon immediately following. This regimen provides a quantity of mannose sufficient to remove a majority of E. coli in the urinary tract, while improving the ease of use and compliance.

## O=C(CO)[C@@H](O)[C@H](O)[C@H](O)CO [fructose, reference compound]
E. coli; fructose contained in cranberry juice
  binding to E. coli: can also bind to E. coli

## O=C[C@@H](O)[C@@H](O)[C@H](O)[C@H](O)CO [D-mannose]
E. coli; compared with fructose
  effectiveness in binding to E. coli and inhibiting its attachment, relative to fructose: ten times more effectively
[1]
  effectiveness of the dosages in doctor-run trials: effective

Reference: patent publication US20040147459A1, “Method and composition for maintaining urinary tract health in the face of infections” (priority 2002, published 2004)
